According to ChEMBL document CHEMBL4507295 (2021):

Experiments:
[1] = biological target: Interleukin-1 receptor-associated kinase 3 (Homo sapiens) (UniProt Q9Y616); conditions: Compound concentration 1000.0 nM
[2] = biological target: Mitogen-activated protein kinase kinase kinase kinase 1 (Homo sapiens) (UniProt Q92918); conditions: Compound concentration 1000.0 nM
[3] = test system: Phosphatidylinositol 4,5-bisphosphate 3-kinase catalytic subunit alpha isoform (Homo sapiens), P42336 [H1047L]; conditions: Compound concentration 1000.0 nM
[4] = biological target: Serine/threonine-protein kinase 10 (Homo sapiens) (UniProt O94804); conditions: Compound concentration 1000.0 nM
[5] = biological target: Microtubule-associated serine/threonine-protein kinase 1 (Homo sapiens) (UniProt Q9Y2H9); conditions: Compound concentration 1000.0 nM
[6] = biological target: Serine/threonine-protein kinase PLK4 (Homo sapiens) (UniProt O00444); conditions: Compound concentration 1000.0 nM
[7] = test system: Epidermal growth factor receptor (Homo sapiens), P00533 [UNDEFINED MUTATION]; conditions: Compound concentration 1000.0 nM
[8] = biological target: Serine/threonine-protein kinase Nek2 (Homo sapiens) (UniProt P51955); conditions: Compound concentration 1000.0 nM
[9] = biological target: Serine/threonine-protein kinase D2 (Homo sapiens) (UniProt Q9BZL6); conditions: Compound concentration 1000.0 nM
[10] = biological target: STE20/SPS1-related proline-alanine-rich protein kinase (Homo sapiens) (UniProt Q9UEW8); conditions: Compound concentration 1000.0 nM
[11] = biological target: Tyrosine-protein kinase ABL1 (Homo sapiens) (UniProt P00519); conditions: Compound concentration 1000.0 nM
[12] = biological target: cGMP-dependent protein kinase 2 (Homo sapiens) (UniProt Q13237); conditions: Compound concentration 1000.0 nM
[13] = biological target: Serine/threonine-protein kinase STK11 (Homo sapiens) (UniProt Q15831); conditions: Compound concentration 1000.0 nM
[14] = biological target: Insulin receptor (Homo sapiens) (UniProt P06213); conditions: Compound concentration 1000.0 nM
[15] = biological target: Cyclin-dependent kinase-like 2 (Homo sapiens) (UniProt Q92772); conditions: Compound concentration 1000.0 nM
[16] = biological target: Serine/threonine-protein kinase 35 (Homo sapiens) (UniProt Q8TDR2); conditions: Compound concentration 1000.0 nM
[17] = biological target: Cyclin-dependent kinase 3 (Homo sapiens) (UniProt Q00526); conditions: Compound concentration 1000.0 nM
[18] = biological target: Rhodopsin kinase GRK1 (Homo sapiens) (UniProt Q15835); conditions: Compound concentration 1000.0 nM
[19] = biological target: cGMP-dependent protein kinase 1 (Homo sapiens) (UniProt Q13976); conditions: Compound concentration 1000.0 nM
[20] = biological target: Protein kinase C eta type (Homo sapiens) (UniProt P24723); conditions: Compound concentration 1000.0 nM
[21] = biological target: Serine/threonine-protein kinase ULK2 (Homo sapiens) (UniProt Q8IYT8); conditions: Compound concentration 1000.0 nM
[22] = biological target: Death-associated protein kinase 1 (Homo sapiens) (UniProt P53355); conditions: Compound concentration 1000.0 nM
[23] = biological target: Muscle, skeletal receptor tyrosine-protein kinase (Homo sapiens) (UniProt O15146); conditions: Compound concentration 1000.0 nM
[24] = biological target: Serine/threonine-protein kinase 36 (Homo sapiens) (UniProt Q9NRP7); conditions: Compound concentration 1000.0 nM
[25] = biological target: Serine/threonine-protein kinase VRK2 (Homo sapiens) (UniProt Q86Y07); conditions: Compound concentration 1000.0 nM
[26] = biological target: Serine/threonine-protein kinase TNNI3K (Homo sapiens) (UniProt Q59H18); conditions: Compound concentration 1000.0 nM
[27] = biological target: Calcium/calmodulin-dependent protein kinase type 1 (Homo sapiens) (UniProt Q14012); conditions: Compound concentration 1000.0 nM
[28] = biological target: Serine/threonine-protein kinase RIO3 (Homo sapiens) (UniProt O14730); conditions: Compound concentration 1000.0 nM
[29] = biological target: Phosphatidylinositol 4,5-bisphosphate 3-kinase catalytic subunit gamma isoform (Homo sapiens) (UniProt P48736); conditions: Compound concentration 1000.0 nM
[30] = test system: Mast/stem cell growth factor receptor Kit (Homo sapiens), P10721 [D816V]; conditions: Compound concentration 1000.0 nM
[31] = biological target: Tyrosine-protein kinase JAK1 (Homo sapiens) (UniProt P23458); conditions: Compound concentration 1000.0 nM
[32] = test system: Epidermal growth factor receptor (Homo sapiens), P00533 [UNDEFINED MUTATION]; conditions: Compound concentration 1000.0 nM; remark: listed apart in the source
[33] = test system: Tyrosine-protein kinase ABL1 (Homo sapiens), P00519 [T315I]; conditions: Compound concentration 1000.0 nM
[34] = biological target: Protein kinase C theta type (Homo sapiens) (UniProt Q04759); conditions: Compound concentration 1000.0 nM
[35] = biological target: Inhibitor of nuclear factor kappa-B kinase subunit epsilon (Homo sapiens) (UniProt Q14164); conditions: Compound concentration 1000.0 nM
[36] = biological target: Mitotic checkpoint serine/threonine-protein kinase BUB1 (Homo sapiens) (UniProt O43683); conditions: Compound concentration 1000.0 nM
[37] = biological target: Calcium/calmodulin-dependent protein kinase type 1G (Homo sapiens) (UniProt Q96NX5); conditions: Compound concentration 1000.0 nM
[38] = biological target: Mitogen-activated protein kinase 9 (Homo sapiens) (UniProt P45984); conditions: Compound concentration 1000.0 nM
[39] = biological target: Beta-2 adrenergic receptor (Homo sapiens) (UniProt P07550); conditions: Compound concentration 10.0 uM
[40] = biological target: Transient receptor potential cation channel subfamily M member 6 (Homo sapiens) (UniProt Q9BX84); conditions: Compound concentration 1000.0 nM
[41] = biological target: RAF proto-oncogene serine/threonine-protein kinase (Homo sapiens) (UniProt P04049); conditions: Compound concentration 1000.0 nM
[42] = biological target: Cyclin-dependent kinase 11B (Homo sapiens) (UniProt P21127); conditions: Compound concentration 1000.0 nM
[43] = biological target: Serine/threonine-protein kinase DCLK3 (Homo sapiens) (UniProt Q9C098); conditions: Compound concentration 1000.0 nM
[44] = biological target: Tyrosine-protein kinase ITK/TSK (Homo sapiens) (UniProt Q08881); conditions: Compound concentration 1000.0 nM
[45] = biological target: Serine/threonine-protein kinase 4 (Homo sapiens) (UniProt Q13043); conditions: Compound concentration 1000.0 nM

Epidermal growth factor receptor (Homo sapiens), P00533 [UNDEFINED MUTATION], sequence (P00533 whole entry, looked up, stated change not applied): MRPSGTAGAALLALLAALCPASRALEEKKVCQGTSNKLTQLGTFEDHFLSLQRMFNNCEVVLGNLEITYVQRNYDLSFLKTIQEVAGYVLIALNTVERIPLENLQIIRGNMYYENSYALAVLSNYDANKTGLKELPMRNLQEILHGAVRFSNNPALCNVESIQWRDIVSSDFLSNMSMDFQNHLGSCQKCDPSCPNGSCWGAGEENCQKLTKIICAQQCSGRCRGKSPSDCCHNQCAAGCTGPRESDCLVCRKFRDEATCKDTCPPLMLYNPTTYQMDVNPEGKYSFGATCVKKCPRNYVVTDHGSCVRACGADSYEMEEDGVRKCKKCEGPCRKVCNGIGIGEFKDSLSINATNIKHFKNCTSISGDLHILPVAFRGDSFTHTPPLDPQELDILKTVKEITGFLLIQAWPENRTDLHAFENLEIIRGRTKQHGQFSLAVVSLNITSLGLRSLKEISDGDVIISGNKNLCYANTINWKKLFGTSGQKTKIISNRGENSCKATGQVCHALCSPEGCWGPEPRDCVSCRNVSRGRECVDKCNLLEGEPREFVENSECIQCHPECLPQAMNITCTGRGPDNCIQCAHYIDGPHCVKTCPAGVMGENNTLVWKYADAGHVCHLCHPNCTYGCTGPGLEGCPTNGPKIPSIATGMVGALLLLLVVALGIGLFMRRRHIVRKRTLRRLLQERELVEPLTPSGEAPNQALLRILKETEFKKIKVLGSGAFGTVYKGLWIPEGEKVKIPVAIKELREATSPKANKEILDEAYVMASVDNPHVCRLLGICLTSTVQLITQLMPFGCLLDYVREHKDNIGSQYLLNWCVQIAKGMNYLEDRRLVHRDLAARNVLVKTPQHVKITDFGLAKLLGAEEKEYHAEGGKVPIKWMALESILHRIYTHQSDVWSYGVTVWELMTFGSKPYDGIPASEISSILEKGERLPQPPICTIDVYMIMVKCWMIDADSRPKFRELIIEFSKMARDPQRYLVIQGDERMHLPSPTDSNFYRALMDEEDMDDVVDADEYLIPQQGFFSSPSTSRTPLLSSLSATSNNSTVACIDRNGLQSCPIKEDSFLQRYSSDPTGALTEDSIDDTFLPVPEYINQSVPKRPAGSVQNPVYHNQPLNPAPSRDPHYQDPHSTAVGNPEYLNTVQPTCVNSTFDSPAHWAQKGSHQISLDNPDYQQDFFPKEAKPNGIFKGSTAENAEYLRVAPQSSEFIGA
Phosphatidylinositol 4,5-bisphosphate 3-kinase catalytic subunit alpha isoform (Homo sapiens), P42336 [H1047L], sequence (P42336 whole entry H1047L, canonical isoform): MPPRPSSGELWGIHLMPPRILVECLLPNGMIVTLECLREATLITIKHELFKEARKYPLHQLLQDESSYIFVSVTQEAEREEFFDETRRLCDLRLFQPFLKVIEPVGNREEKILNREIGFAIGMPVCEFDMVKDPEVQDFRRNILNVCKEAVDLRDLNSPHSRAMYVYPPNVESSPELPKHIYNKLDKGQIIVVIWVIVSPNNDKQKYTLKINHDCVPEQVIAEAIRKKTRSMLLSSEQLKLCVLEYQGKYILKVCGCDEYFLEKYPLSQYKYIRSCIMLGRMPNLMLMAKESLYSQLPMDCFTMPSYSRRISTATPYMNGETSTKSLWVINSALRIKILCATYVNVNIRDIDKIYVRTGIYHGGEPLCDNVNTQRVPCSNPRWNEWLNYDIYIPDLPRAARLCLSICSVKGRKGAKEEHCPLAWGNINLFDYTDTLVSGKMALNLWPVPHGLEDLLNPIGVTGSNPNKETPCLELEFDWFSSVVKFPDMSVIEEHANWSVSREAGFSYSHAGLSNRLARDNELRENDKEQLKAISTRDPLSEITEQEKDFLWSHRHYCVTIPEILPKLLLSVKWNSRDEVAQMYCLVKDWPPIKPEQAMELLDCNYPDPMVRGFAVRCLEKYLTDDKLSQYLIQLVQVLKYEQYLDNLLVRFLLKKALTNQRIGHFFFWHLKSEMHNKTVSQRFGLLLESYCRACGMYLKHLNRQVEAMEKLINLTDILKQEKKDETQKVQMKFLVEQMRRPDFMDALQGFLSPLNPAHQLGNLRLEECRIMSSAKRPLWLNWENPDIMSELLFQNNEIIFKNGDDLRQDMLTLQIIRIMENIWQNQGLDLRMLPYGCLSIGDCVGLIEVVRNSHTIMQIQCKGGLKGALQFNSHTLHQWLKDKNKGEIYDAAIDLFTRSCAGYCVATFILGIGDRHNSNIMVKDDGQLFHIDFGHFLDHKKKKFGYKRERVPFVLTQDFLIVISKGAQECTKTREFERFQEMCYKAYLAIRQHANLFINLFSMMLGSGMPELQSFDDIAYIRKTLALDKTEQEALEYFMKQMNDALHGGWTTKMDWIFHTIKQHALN
Beta-2 adrenergic receptor (Homo sapiens), sequence (P07550 whole entry, looked up): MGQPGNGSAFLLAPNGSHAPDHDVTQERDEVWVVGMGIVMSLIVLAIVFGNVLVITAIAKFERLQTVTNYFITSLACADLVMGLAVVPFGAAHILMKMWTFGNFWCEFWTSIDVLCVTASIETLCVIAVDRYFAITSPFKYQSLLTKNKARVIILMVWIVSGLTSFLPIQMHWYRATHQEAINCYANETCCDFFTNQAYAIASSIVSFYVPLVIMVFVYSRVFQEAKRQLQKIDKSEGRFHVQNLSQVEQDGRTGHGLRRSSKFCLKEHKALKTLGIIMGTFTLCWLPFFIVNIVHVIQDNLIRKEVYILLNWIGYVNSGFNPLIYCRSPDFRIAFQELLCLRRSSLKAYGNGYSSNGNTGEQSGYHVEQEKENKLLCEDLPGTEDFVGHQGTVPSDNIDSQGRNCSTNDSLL
Serine/threonine-protein kinase DCLK3 (Homo sapiens), sequence (Q9C098 whole entry): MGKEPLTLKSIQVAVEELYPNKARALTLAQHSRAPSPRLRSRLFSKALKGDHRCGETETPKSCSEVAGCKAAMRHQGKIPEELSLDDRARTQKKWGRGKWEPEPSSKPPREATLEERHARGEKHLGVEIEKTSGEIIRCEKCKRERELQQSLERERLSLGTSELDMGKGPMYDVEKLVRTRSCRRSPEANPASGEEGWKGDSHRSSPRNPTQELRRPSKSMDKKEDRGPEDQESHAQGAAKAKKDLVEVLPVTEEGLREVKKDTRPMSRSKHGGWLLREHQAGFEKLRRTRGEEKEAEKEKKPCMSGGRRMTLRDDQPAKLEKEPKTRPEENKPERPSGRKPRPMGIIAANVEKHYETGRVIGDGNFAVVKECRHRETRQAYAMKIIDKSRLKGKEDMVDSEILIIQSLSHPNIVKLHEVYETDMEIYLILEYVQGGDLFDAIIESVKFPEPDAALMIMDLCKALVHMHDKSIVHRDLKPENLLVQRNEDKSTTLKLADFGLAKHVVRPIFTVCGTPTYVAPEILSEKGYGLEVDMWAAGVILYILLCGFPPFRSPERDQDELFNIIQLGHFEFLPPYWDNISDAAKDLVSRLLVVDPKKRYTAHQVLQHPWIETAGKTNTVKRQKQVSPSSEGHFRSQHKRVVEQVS
RAF proto-oncogene serine/threonine-protein kinase (Homo sapiens), sequence (P04049 whole entry): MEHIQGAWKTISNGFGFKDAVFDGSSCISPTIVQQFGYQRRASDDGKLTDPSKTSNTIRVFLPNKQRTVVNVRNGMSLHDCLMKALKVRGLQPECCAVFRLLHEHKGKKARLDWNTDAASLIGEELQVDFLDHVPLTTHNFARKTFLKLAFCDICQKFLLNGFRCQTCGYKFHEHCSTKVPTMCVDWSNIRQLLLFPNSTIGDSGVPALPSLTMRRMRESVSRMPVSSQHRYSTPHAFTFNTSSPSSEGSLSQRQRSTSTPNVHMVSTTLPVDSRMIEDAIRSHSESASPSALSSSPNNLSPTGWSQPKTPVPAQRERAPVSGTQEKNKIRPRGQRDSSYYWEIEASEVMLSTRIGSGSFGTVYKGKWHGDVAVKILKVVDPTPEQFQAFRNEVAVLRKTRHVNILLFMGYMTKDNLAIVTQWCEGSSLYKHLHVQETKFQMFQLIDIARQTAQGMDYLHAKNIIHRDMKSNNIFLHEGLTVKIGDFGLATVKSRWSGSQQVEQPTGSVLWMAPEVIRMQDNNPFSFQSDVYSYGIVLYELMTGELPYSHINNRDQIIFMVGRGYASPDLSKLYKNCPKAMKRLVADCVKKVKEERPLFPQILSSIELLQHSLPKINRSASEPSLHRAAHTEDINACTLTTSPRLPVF
Tyrosine-protein kinase ITK/TSK (Homo sapiens), sequence (Q08881 whole entry): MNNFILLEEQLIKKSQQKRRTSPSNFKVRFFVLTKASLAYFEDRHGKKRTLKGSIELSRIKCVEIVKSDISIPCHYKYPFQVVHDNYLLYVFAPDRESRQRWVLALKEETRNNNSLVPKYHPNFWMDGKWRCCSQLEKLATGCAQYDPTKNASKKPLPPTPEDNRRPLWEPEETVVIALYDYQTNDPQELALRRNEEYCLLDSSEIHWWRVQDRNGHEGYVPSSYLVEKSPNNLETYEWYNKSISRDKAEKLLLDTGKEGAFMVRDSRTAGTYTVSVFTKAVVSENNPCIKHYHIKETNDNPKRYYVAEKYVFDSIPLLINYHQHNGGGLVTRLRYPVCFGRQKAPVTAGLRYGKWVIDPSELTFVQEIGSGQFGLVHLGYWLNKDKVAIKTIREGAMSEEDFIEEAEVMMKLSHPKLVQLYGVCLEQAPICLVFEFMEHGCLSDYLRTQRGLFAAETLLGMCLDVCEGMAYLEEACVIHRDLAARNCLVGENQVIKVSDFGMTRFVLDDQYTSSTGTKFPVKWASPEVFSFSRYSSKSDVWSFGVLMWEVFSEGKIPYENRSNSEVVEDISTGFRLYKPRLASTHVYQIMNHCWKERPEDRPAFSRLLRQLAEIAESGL
Calcium/calmodulin-dependent protein kinase type 1 (Homo sapiens), sequence (Q14012 whole entry, looked up): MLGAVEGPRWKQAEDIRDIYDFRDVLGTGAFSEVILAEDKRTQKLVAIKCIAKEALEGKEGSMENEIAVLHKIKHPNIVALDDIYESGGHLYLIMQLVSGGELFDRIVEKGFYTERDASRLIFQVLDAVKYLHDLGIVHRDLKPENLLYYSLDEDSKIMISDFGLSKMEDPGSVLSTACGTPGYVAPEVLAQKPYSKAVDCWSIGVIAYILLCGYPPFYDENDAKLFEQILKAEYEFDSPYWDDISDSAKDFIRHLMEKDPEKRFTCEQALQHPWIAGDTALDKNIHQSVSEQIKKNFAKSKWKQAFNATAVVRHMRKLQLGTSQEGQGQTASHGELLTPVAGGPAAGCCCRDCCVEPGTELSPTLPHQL

N#CC1(c2ccccn2)CCN(Cc2cc(C(=O)O)c(=O)n3ccccc23)CC1 [MSD-M1PAM]
inactive: residual activity [1] 100% | residual activity [2] 100% | residual activity [3] 80% | residual activity [4] 100% | residual activity [5] 50% | residual activity [6] 90% | residual activity [7] 100% | residual activity [8] 100% | residual activity [9] 99% | residual activity [10] 56% | residual activity [11] 98% | residual activity [12] 95% | residual activity [13] 100% | residual activity [14] 74% | residual activity [15] 100% | residual activity [16] 94% | residual activity [17] 99% | residual activity [18] 84% | residual activity [19] 98% | residual activity [20] 100% | residual activity [21] 93% | residual activity [22] 100% | residual activity [23] 96% | residual activity [24] 100% | residual activity [25] 100% | residual activity [26] 100% | residual activity [27] 76% | residual activity [28] 96% | residual activity [29] 91% | residual activity [30] 100% | residual activity [31] 100% | residual activity [32] 80% | residual activity [33] 91% | residual activity [34] 96% | residual activity [35] 88% | residual activity [36] 100% | residual activity [37] 100% | residual activity [38] 83% | inhibition [39] 13.9% | residual activity [40] 100% | residual activity [41] 100% | residual activity [42] 100% | residual activity [43] 89% | residual activity [44] 100% | residual activity [45] 100%

N#CC1(c2ccccn2)CCN(Cc2cc(C(=O)N3CCCC3)c(=O)n3ccccc23)CC1
inactive: residual activity [1] 100% | residual activity [2] 100% | residual activity [3] 100% | residual activity [4] 95% | residual activity [5] 82% | residual activity [6] 87% | residual activity [7] 67% | residual activity [8] 95% | residual activity [9] 85% | residual activity [10] 75% | residual activity [11] 78% | residual activity [12] 100% | residual activity [13] 77% | residual activity [14] 88% | residual activity [15] 93% | residual activity [16] 96% | residual activity [17] 79% | residual activity [18] 85% | residual activity [19] 88% | residual activity [20] 100% | residual activity [21] 92% | residual activity [22] 89% | residual activity [23] 90% | residual activity [24] 98% | residual activity [25] 100% | residual activity [26] 89% | residual activity [27] 100% | residual activity [28] 90% | residual activity [29] 75% | residual activity [30] 100% | residual activity [31] 95% | residual activity [32] 94% | residual activity [33] 100% | residual activity [34] 100% | residual activity [35] 94% | residual activity [36] 100% | residual activity [37] 100% | residual activity [38] 97% | inhibition [39] 15.8% | residual activity [40] 80% | residual activity [41] 100% | residual activity [42] 80% | residual activity [43] 100% | residual activity [44] 95% | residual activity [45] 88%
